In publication PMC11898488, “A2A Adenosine Receptor Antagonists and Their Efficacy in Rat Models of Parkinson’s Disease” (Cells, 2025):
Like-named read-outs stand apart in the source and are kept apart here.

Tests used:
[1] = test system: spontaneous motility; assay: Spontaneous motility in rats; format: in vivo, rat; conditions: for Effect on spontaneous motility: 5 mg/kg i.p.; for Effect on motility at higher doses: 10 and 15 mg/kg
[2] = test system: 6-OHDA-lesioned rats; assay: Potentiation of L-dopa-induced contralateral rotations in unilaterally 6-OHDA-lesioned rats; format: in vivo, rat; conditions: 5 mg/kg i.p. with L-dopa 3 mg/kg i.p., turns in 2 h, versus L-dopa alone
Method: Rats (275–300 g) were anesthetized and placed on a David Kopf stereotaxic apparatus (Tujunga, CA, USA) and infused, using a stainless steel cannula, into the left medial forebrain bundle [coordinates A = −2.2, L = +1.5 from bregma, V = −7.9 from the dura, according to the atlas of Pellegrino et al. (1979) [34]] with 6-OHDA (8 μg/4 μL of saline containing 0.05% ascorbic acid). Rats were pretreated with desipramine (10 mg/kg i.p.) to prevent damage to noradrenergic neurons.
Rotational behavior was assessed in hemispherical bowls (50 cm diameter), with sawdust on the floor, in which each rat was connected to an automated rotameter system (Panlab s.l., Barcelona, Spain) capable of detecting the number of full (360°) rotations in both directions (ipsilateral and contralateral to the lesioned hemisphere). Rats were placed in the bowls 30 min before drug administration to acclimatize and extinguish any spontaneous rotational behavior, and both contralateral and homolateral rotations were measured in 10 min blocks for 120 min after drug injection. The total number of contralateral and homolateral rotations (mean ± SEM) in a 2 h testing period were calculated.
Potentiation of L-dopa-induced rotational behavior: two weeks after the unilateral 6-OHDA lesion, rats were screened based on their contralateral rotations in response to L-dopa (50 mg/kg i.p.) + benserazide (30 mg/ kg i.p.). Rats not showing at least 300 contralateral rotations during the 2 h testing period were eliminated from the study. Three days later, rats were administered with a subthreshold dose of L-dopa (3 mg/kg i.p.) + benserazide (6 mg/kg i.p.) in combination with the vehicle or with a dose of 5 mg/kg i.p of 1, 4, or 5. Compounds were administered simultaneously with L-dopa. Benserazide was always injected 30 min before L-dopa.
In the rotational behavior experiments, the mean and S.E.M. of the total number of contralateral rotations were calculated. Significant differences between groups were evaluated by one-way ANOVA followed by a Newman–Keuls post hoc test.

[3] = target: T1, human A2BAR (Homo sapiens, UniProt P29275); conditions: inhibition of NECA-stimulated AC activity, CHO cells expressing human A2BAR; geometric mean with 95% confidence limits; read-out: IC50 A2B; cited from earlier work
T1 construct: expressed in transfected cells; host or cells: CHO cells, crude membrane fractions
T1 sequence (P29275 1-332): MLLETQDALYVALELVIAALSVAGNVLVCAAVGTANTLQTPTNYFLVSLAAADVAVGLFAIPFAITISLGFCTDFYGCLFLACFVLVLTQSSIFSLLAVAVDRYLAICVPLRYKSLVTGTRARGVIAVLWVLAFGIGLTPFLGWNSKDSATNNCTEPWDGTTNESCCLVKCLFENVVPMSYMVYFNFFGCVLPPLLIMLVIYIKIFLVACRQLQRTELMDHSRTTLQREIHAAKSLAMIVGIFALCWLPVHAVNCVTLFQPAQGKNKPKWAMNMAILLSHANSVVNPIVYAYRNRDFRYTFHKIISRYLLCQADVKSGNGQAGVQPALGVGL

[4] = target: T2, human A3AR (Homo sapiens, UniProt P0DMS8); assay: Radioligand binding, displacement of [3H]NECA at human A3AR in CHO cells; conditions: [3H]-NECA displacement, geometric mean with 95% confidence limits, read-out: Ki A3
T2 construct: expressed in transfected cells; host or cells: CHO cells, crude membrane fractions
T2 sequence (P0DMS8 1-318): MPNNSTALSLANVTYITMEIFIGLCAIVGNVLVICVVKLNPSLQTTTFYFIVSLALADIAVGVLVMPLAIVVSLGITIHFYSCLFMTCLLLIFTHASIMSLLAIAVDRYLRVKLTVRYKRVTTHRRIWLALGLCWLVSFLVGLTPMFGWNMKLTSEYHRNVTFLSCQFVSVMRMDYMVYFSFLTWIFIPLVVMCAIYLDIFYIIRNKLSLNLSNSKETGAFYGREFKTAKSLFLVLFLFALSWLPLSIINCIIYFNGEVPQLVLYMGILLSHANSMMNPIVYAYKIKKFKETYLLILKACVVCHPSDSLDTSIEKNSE
Method: (§1) The radioligand binding experiments were carried out exactly as described previously. For A1AR binding, 1 nM [^3H]CCPA was used as a radioligand, whereas 30 and 10 nM [^3H]NECA were used for A2A and A3 ARs, respectively. Nonspecific binding was determined in the presence of 1 mM theophylline (A1AR) or […] R-PIA (A2A and A3 ARs). Ki values were calculated from competition curves by nonlinear curve fitting with the program SCTFIT [31].
(§2) CHO cells stably transfected with human ARs were grown adherently and maintained in Dulbecco’s Modified Eagles Medium with nutrient mixture F12 (DMEM/F12) without nucleosides, containing 10% fetal calf serum, penicillin (100 U/mL), streptomycin (100 μg/mL), L-glutamine (2 mM), and Geneticin (G-418, 0.2 mg/mL) at 37 °C in 5% CO2/95% air, as described earlier. For radioligand binding studies and measurement of adenylyl cyclase activity, crude membrane fractions were prepared from fresh or frozen cells with two different protocols described earlier. The determination of adenylyl cyclase activity followed the procedure described earlier. IC50 values for the inhibition of adenylyl cyclase stimulated (in the case of A2BAR) with 5 μM NECA were calculated with the Hill equation and converted to Ki values with the Cheng and Prusoff equation [32].
(§3) [^3H]CCPA (2-chloro-N^6-cyclopentylAdo) and [^3H]NECA (5′-N-ethylcarboxamidoAdo) were used as specific radioligands at A1ARand A2A / A3 ARs, respectively. Furthermore, the ability of the same compounds to inhibit NECA-stimulated adenylyl cyclase activity was evaluated at the A2BAR subtype. The results of the binding studies (A1, A2A, and A3 ARs) and functional data (A2BAR) are reported in Table 1 as Ki or IC50 values in nM, together with the data on the reference compounds 1–3.

[5] = target: T3, human A1AR (Homo sapiens, UniProt P30542); assay: Radioligand binding, displacement of [3H]CCPA at human A1AR in CHO cells; conditions: [3H]-CCPA displacement, geometric mean with 95% confidence limits, read-out: Ki A1
T3 construct: expressed in transfected cells; host or cells: CHO cells, crude membrane fractions
T3 sequence (P30542 1-326): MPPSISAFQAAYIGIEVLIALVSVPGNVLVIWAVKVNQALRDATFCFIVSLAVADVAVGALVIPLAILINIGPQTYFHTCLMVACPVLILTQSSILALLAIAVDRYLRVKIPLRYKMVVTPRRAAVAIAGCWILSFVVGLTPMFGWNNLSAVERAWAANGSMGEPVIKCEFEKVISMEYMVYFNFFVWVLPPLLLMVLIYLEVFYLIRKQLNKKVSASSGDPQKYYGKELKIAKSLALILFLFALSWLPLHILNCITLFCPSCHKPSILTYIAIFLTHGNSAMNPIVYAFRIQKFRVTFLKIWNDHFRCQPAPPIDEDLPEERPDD
Method: as §1, §2, §3

[6] = target: T1, human A2BAR; assay: Inhibition of NECA-stimulated adenylyl cyclase activity at human A2BAR; format: biochemical; conditions: inhibition of NECA-stimulated AC activity, CHO cells expressing human A2BAR; geometric mean with 95% confidence limits; read-out: IC50 A2B
Method: as §2, §3

Effect on spontaneous motility [1]	Effect on motility at higher doses [1]	Ki [4] [nM]	Ki [5] [nM]	IC50 [6] [nM]	SMILES	Number of contralateral rotations induced by subthreshold L-dopa [2]	IC50 [3] [nM]
did not modify spontaneous motility	caused hypermotility	359	86	6510	CCOc1nc2c(N)nc(OCCc3ccccc3)nc2n1CC [Compound 4, 8-ethoxy-9-ethyl-2-phenethoxyadenine]	significantly increased	–
did not modify spontaneous motility	caused hypermotility	489	25	719	CCn1c(I)nc2c(N)nc(OCCc3ccccc3)nc21 [Compound 5, 9-ethyl-8-iodo-2-phenethoxy-9H-purin-6-amine]	significantly increased	–

SMILES	Effect on spontaneous motility [1]	Effect on motility at higher doses [1]	Ki [4] [nM]	Ki [5] [nM]	IC50 [6] [nM]	Number of contralateral rotations induced by subthreshold L-dopa [2]	IC50 [3] [nM]
CCn1c(Br)nc2c(N)nc(OCCc3ccccc3)nc21 [Compound 1, 8-bromo-9-ethyl-2-phenetoxyadenine]	did not modify spontaneous motility	caused hypermotility	–	–	–	did not increase	569
